Laboratory results as given in patent publication US20230143604A1, “QW DOSING OF GIP RECEPTOR AGONIST PEPTIDE COMPOUNDS AND USES THEREOF” (TAKEDA PHARMACEUTICAL COMPANY LIMITED, priority 2020, published 2023).
Starred links: 1 amine or outer side, 2 acyl side, 3 side chain; linkers in the order of their positions; H or OH if unused. Non-standard residues stand in square brackets, D forms with d. Residues, ends and D or L forms follow the SMILES beside them. Groups on a side chain read outwards from the residue. *: point of attachment. C18 diacid = O=C(O)CCCCCCCCCCCCCCCCC(=O)*; C17 diacid = O=C(O)CCCCCCCCCCCCCCCC(=O)*; γGlu = O=C(O)[C@H](CCC(=O)[*:2])N[*:1]; NMeY = CN[C@@H](Cc1ccc(O)cc1)C(=O)O; AEEA = NCCOCCOCC(=O)O; Aib = CC(C)(N)C(=O)O

assay: physchem; details: pH 7.4, aqueous buffer
Summary of the method: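 Solubility at pH 7.4 determined by stepwise addition of 200 mM phosphate buffer in 100 μL increments to 3 mg peptide, mixing briefly each time, until no insoluble material remained, then measured by liquid chromatography.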

SMILES	solubility [µg/mL]
CC[C@H](C)[C@H](NC(=O)[C@H](CO)NC(=O)[C@H](Cc1ccc(O)cc1)NC(=O)[C@H](CC(=O)O)NC(=O)[C@H](CO)NC(=O)[C@@H](NC(=O)[C@H](Cc1ccccc1)NC(=O)[C@@H](NC(=O)CNC(=O)[C@H](CCC(=O)O)NC(=O)C(C)(C)NC(=O)[C@@H](N)Cc1ccc(O)cc1)[C@@H](C)O)[C@@H](C)CC)C(=O)N[C@@H](C)C(=O)N[C@@H](CC(C)C)C(=O)N[C@@H](CC(=O)O)C(=O)N[C@@H](CCCNC(=N)N)C(=O)N[C@H](C(=O)N[C@@H](Cc1c[nH]cn1)C(=O)N[C@@H](CCC(N)=O)C(=O)N[C@@H](CCC(N)=O)C(=O)N[C@@H](CC(N)=O)C(=O)N[C@@H](Cc1ccccc1)C(=O)N[C@H](C(=O)N[C@@H](CC(N)=O)C(=O)N[C@@H](Cc1c[nH]c2ccccc12)C(=O)N[C@@H](CC(C)C)C(=O)N[C@@H](CC(C)C)C(=O)N[C@@H](C)C(=O)N[C@@H](CCC(N)=O)C(=O)N[C@@H](CCCCNC(=O)COCCOCCNC(=O)COCCOCCNC(=O)CC[C@H](NC(=O)CCCCCCCCCCCCCCCCC(=O)O)C(=O)O)C(=O)O)C(C)C)[C@@H](C)CC [Compound 249] (H-Y[Aib]EGTFISDYSIALDRIHQQNFVNWLLAQK([AEEA-AEEA-γGlu-C18 diacid])-OH; N-terminus and C-terminus assumed)	≥ 6800
CC[C@H](C)[C@H](NC(=O)[C@H](CO)NC(=O)[C@H](Cc1ccc(O)cc1)NC(=O)[C@H](CC(=O)O)NC(=O)[C@H](CO)NC(=O)[C@@H](NC(=O)[C@H](Cc1ccccc1)NC(=O)[C@@H](NC(=O)CNC(=O)[C@H](CCC(=O)O)NC(=O)C(C)(C)NC(=O)[C@H](Cc1ccc(O)cc1)NC)[C@@H](C)O)[C@@H](C)CC)C(=O)N[C@@H](C)C(=O)N[C@@H](CCCCNC(=O)CNC(=O)CNC(=O)CNC(=O)CNC(=O)CNC(=O)CCCCCCCCCCCCCCCCC(=O)O)C(=O)N[C@@H](CC(=O)O)C(=O)N[C@@H](CCCNC(=N)N)C(=O)NC(C)(C)C(=O)N[C@@H](C)C(=O)N[C@@H](CCC(N)=O)C(=O)NC(C)(C)C(=O)N[C@@H](CC(N)=O)C(=O)N[C@@H](Cc1ccccc1)C(=O)N[C@H](C(=O)N[C@@H](CC(N)=O)C(=O)N[C@@H](Cc1c[nH]c2ccccc12)C(=O)N[C@@H](CC(C)C)C(=O)N[C@@H](CC(C)C)C(=O)N[C@@H](C)C(=O)N[C@@H](CCC(N)=O)C(=O)N[C@@H](CCCNC(=N)N)C(N)=O)C(C)C [Compound 250]	≥ 700
CC[C@H](C)[C@H](NC(=O)[C@H](CO)NC(=O)[C@H](Cc1ccc(O)cc1)NC(=O)[C@H](CC(=O)O)NC(=O)[C@H](CO)NC(=O)[C@@H](NC(=O)[C@H](Cc1ccccc1)NC(=O)[C@@H](NC(=O)CNC(=O)[C@H](CCC(=O)O)NC(=O)C(C)(C)NC(=O)[C@H](Cc1ccc(O)cc1)NC)[C@@H](C)O)[C@@H](C)CC)C(=O)N[C@@H](C)C(=O)N[C@@H](CCCCNC(=O)CNC(=O)CNC(=O)CNC(=O)CNC(=O)CNC(=O)CCCCCCCCCCCCCCCCC(=O)O)C(=O)N[C@@H](CC(=O)O)C(=O)N[C@@H](CCCNC(=N)N)C(=O)NC(C)(C)C(=O)N[C@@H](C)C(=O)N[C@@H](CCC(N)=O)C(=O)NC(C)(C)C(=O)N[C@@H](CC(N)=O)C(=O)N[C@@H](Cc1ccccc1)C(=O)N[C@H](C(=O)N[C@@H](CC(N)=O)C(=O)N[C@@H](Cc1c[nH]c2ccccc12)C(=O)N[C@@H](CC(C)C)C(=O)N[C@@H](CC(C)C)C(=O)N[C@@H](C)C(=O)N[C@@H](CCC(N)=O)C(=O)N[C@@H](CCCNC(=N)N)C(=O)O)C(C)C [Compound 251]	≥ 7000
CC[C@H](C)[C@H](NC(=O)[C@H](CCCNC(=N)N)NC(=O)[C@H](CC(=O)O)NC(=O)[C@H](CCCCNC(=O)COCCOCCNC(=O)COCCOCCNC(=O)CC[C@H](NC(=O)CCCCCCCCCCCCCCCCC(=O)O)C(=O)O)NC(=O)[C@H](C)NC(=O)[C@@H](NC(=O)[C@H](CO)NC(=O)[C@H](Cc1ccc(O)cc1)NC(=O)[C@H](CC(=O)O)NC(=O)[C@H](CO)NC(=O)[C@@H](NC(=O)[C@H](Cc1ccccc1)NC(=O)[C@@H](NC(=O)CNC(=O)[C@H](CCC(=O)O)NC(=O)C(C)(C)NC(=O)[C@H](Cc1ccc(O)cc1)NC)[C@@H](C)O)[C@@H](C)CC)[C@@H](C)CC)C(=O)N[C@@H](C)C(=O)N[C@@H](CCC(N)=O)C(=O)NC(C)(C)C(=O)N[C@@H](CC(N)=O)C(=O)N[C@@H](Cc1ccccc1)C(=O)N[C@H](C(=O)N[C@@H](CC(N)=O)C(=O)N[C@@H](Cc1c[nH]c2ccccc12)C(=O)N[C@@H](CC(C)C)C(=O)N[C@@H](CC(C)C)C(=O)N[C@@H](C)C(=O)N[C@@H](CCC(N)=O)C(=O)N[C@@H](CCCNC(=N)N)C(N)=O)C(C)C [Compound 252] (H-[NMeY][Aib]EGTFISDYSIAK([AEEA-AEEA-γGlu-C18 diacid])DRIAQ[Aib]NFVNWLLAQR-NH2)	≥ 7300
CC[C@H](C)[C@H](NC(=O)[C@H](CO)NC(=O)[C@H](Cc1ccc(O)cc1)NC(=O)[C@H](CC(=O)O)NC(=O)[C@H](CO)NC(=O)[C@@H](NC(=O)[C@H](Cc1ccccc1)NC(=O)[C@@H](NC(=O)CNC(=O)[C@H](CCC(=O)O)NC(=O)C(C)(C)NC(=O)[C@H](Cc1ccc(O)cc1)NC)[C@@H](C)O)[C@@H](C)CC)C(=O)N[C@@H](C)C(=O)N[C@@H](CCCCNC(=O)COCCOCCNC(=O)COCCOCCNC(=O)CC[C@H](NC(=O)CCCCCCCCCCCCCCCCC(=O)O)C(=O)O)C(=O)N[C@@H](CC(=O)O)C(=O)N[C@@H](CCCNC(=N)N)C(=O)NC(C)(C)C(=O)N[C@@H](C)C(=O)N[C@@H](CCC(N)=O)C(=O)N[C@@H](CCC(N)=O)C(=O)N[C@@H](CC(N)=O)C(=O)N[C@@H](Cc1ccccc1)C(=O)N[C@H](C(=O)N[C@@H](CC(N)=O)C(=O)N[C@@H](Cc1c[nH]c2ccccc12)C(=O)N[C@@H](CC(C)C)C(=O)N[C@@H](CC(C)C)C(=O)N[C@@H](C)C(=O)N[C@@H](CCC(N)=O)C(=O)N[C@@H](CCCNC(=N)N)C(N)=O)C(C)C [Compound 253] (H-[NMeY][Aib]EGTFISDYSIAK([AEEA-AEEA-γGlu-C18 diacid])DR[Aib]AQQNFVNWLLAQR-NH2)	≥ 7400
CC[C@H](C)[C@H](NC(=O)[C@H](CO)NC(=O)[C@H](Cc1ccc(O)cc1)NC(=O)[C@H](CC(=O)O)NC(=O)[C@H](CO)NC(=O)[C@@H](NC(=O)[C@H](Cc1ccccc1)NC(=O)[C@@H](NC(=O)CNC(=O)[C@H](CCC(=O)O)NC(=O)C(C)(C)NC(=O)[C@H](Cc1ccc(O)cc1)NC)[C@@H](C)O)[C@@H](C)CC)C(=O)N[C@@H](C)C(=O)N[C@@H](CCCCNC(=O)COCCOCCNC(=O)COCCOCCNC(=O)CC[C@H](NC(=O)CCCCCCCCCCCCCCCCC(=O)O)C(=O)O)C(=O)N[C@@H](CC(=O)O)C(=O)N[C@@H](CCCNC(=N)N)C(=O)NC(C)(C)C(=O)N[C@@H](C)C(=O)N[C@@H](CCC(N)=O)C(=O)NC(C)(C)C(=O)N[C@@H](CC(N)=O)C(=O)N[C@@H](Cc1ccccc1)C(=O)N[C@H](C(=O)N[C@@H](CC(N)=O)C(=O)N[C@@H](Cc1c[nH]c2ccccc12)C(=O)N[C@@H](CC(C)C)C(=O)N[C@@H](CC(C)C)C(=O)N[C@@H](C)C(=O)N[C@@H](CCC(N)=O)C(=O)N[C@@H](CCCNC(=N)N)C(N)=O)C(C)C [Compound 254] (H-[NMeY][Aib]EGTFISDYSIAK([AEEA-AEEA-γGlu-C18 diacid])DR[Aib]AQ[Aib]NFVNWLLAQR-NH2)	≥ 7200
CC[C@H](C)[C@H](NC(=O)[C@H](CO)NC(=O)[C@H](Cc1ccc(O)cc1)NC(=O)[C@H](CC(=O)O)NC(=O)[C@H](CO)NC(=O)[C@@H](NC(=O)[C@H](Cc1ccccc1)NC(=O)[C@@H](NC(=O)CNC(=O)[C@H](CCC(=O)O)NC(=O)C(C)(C)NC(=O)[C@H](Cc1ccc(O)cc1)NC)[C@@H](C)O)[C@@H](C)CC)C(=O)N[C@@H](C)C(=O)N[C@@H](CCCCNC(=O)COCCOCCNC(=O)COCCOCCNC(=O)CC[C@H](NC(=O)CCCCCCCCCCCCCCCC(=O)O)C(=O)O)C(=O)N[C@@H](CC(=O)O)C(=O)N[C@@H](CCCNC(=N)N)C(=O)NC(C)(C)C(=O)N[C@@H](C)C(=O)N[C@@H](CCC(N)=O)C(=O)NC(C)(C)C(=O)N[C@@H](CC(N)=O)C(=O)N[C@@H](Cc1ccccc1)C(=O)N[C@H](C(=O)N[C@@H](CC(N)=O)C(=O)N[C@@H](Cc1c[nH]c2ccccc12)C(=O)N[C@@H](CC(C)C)C(=O)N[C@@H](CC(C)C)C(=O)N[C@@H](C)C(=O)N[C@@H](CCC(N)=O)C(=O)N[C@@H](CCCCN)C(=O)O)C(C)C [Compound 255] (H-[NMeY][Aib]EGTFISDYSIAK([AEEA-AEEA-γGlu-C17 diacid])DR[Aib]AQ[Aib]NFVNWLLAQK-OH; C-terminus assumed)	≥ 10000
CC[C@H](C)[C@H](NC(=O)[C@H](CO)NC(=O)[C@H](Cc1ccc(O)cc1)NC(=O)[C@H](CC(=O)O)NC(=O)[C@H](CO)NC(=O)[C@@H](NC(=O)[C@H](Cc1ccccc1)NC(=O)[C@@H](NC(=O)CNC(=O)[C@H](CCC(=O)O)NC(=O)C(C)(C)NC(=O)[C@H](Cc1ccc(O)cc1)NC)[C@@H](C)O)[C@@H](C)CC)C(=O)N[C@@H](C)C(=O)N[C@@H](CC(C)C)C(=O)N[C@@H](CC(=O)O)C(=O)N[C@@H](CCCNC(=N)N)C(=O)NC(C)(C)C(=O)N[C@@H](CCCCNC(=O)COCCOCCNC(=O)COCCOCCNC(=O)CC[C@H](NC(=O)CC[C@H](NC(=O)CCCCCCCCCCCCCCCC(=O)O)C(=O)O)C(=O)O)C(=O)N[C@@H](CCC(N)=O)C(=O)NC(C)(C)C(=O)N[C@@H](CC(N)=O)C(=O)N[C@@H](Cc1ccccc1)C(=O)N[C@H](C(=O)N[C@@H](CC(N)=O)C(=O)N[C@@H](Cc1c[nH]c2ccccc12)C(=O)N[C@@H](CC(C)C)C(=O)N[C@@H](CC(C)C)C(=O)N[C@@H](C)C(=O)N[C@@H](CCC(N)=O)C(=O)N[C@@H](CCCNC(=N)N)C(N)=O)C(C)C [Compound 256] (H-[NMeY][Aib]EGTFISDYSIALDR[Aib]K([AEEA-AEEA-γGlu-γGlu-C17 diacid])Q[Aib]NFVNWLLAQR-NH2)	≥ 6000
